Data reported in patent publication US11178871B2, “Herbicidal pyrimidine compounds” (BASF SE, priority 2016, dated 2021).

Key:
Type in all cases: in vivo
Echinocloa crus-galli [1] = test: greenhouse test, post-emergence treatment, ECHCG; settings: post-emergence
Outline: (§1)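 Post-emergence greenhouse herbicide test: plants at 3–15 cm sprayed with aqueous formulation of compound, then evaluated on a 0–100 damage scale after 2–4 weeks.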

Setaria viridis = test: greenhouse test, post-emergence treatment, SETVI
Excerpt: (§2) The culture containers used were plastic flowerpots containing loamy sand with approximately 3.0% of humus as the substrate. The seeds of the test plants were sown separately for each species.
(§3) For the post-emergence treatment, the test plants were first grown to a height of 3 to 15 cm, depending on the plant habit, and only then treated with the active ingredients which had been suspended or emulsified in water. For this purpose, the test plants were either sown directly and grown in the same containers, or they were first grown separately as seedlings and transplanted into the test containers a few days prior to treatment.
(§4) Depending on the species, the plants were kept at 10-25° C. or 20-35° C., respectively.
(§5) The test period extended over 2 to 4 weeks. During this time, the plants were tended, and their response to the individual treatments was evaluated.
(§6) Evaluation was carried out using a scale from 0 to 100. 100 means no emergence of the plants, or complete destruction of at least the aerial moieties, and 0 means no damage, or normal course of growth. A good herbicidal activity is given at values of at least 70 and a very good herbicidal activity is given at values of at least 85.
(§7) The plants used in the greenhouse experiments were of the following species: […]

Apera spica-venti = test: greenhouse test, pre-emergence treatment, APESV
Outline: (§8)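 Damage scored visually on a 0-100 scale (100 = no emergence or complete destruction of aerial parts, 0 = normal growth) after 2 to 4 weeks. Treatment was applied pre-emergence as an aqueous suspension or emulsion immediately after sowing in loamy sand (approx. 3.0% humus).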

Amaranthus retroflexus = test: greenhouse test, post-emergence treatment, AMARE
Excerpt: as §2, §3, §4, §5, §6, §7

Echinocloa crus-galli [2] = test: greenhouse test, pre-emergence treatment, ECHCG
Outline: as §8

Avena fatua = test: greenhouse test, post-emergence treatment, AVEFA
Outline: as §1

Abutilon theophrasti = test: greenhouse test, post-emergence treatment, ABUTH
Excerpt: as §2, §3, §4, §5, §6, §7

Alopecurus myosuroides = test: greenhouse test, post-emergence treatment, ALOMY; settings: post-emergence
Outline: as §1

Structure (SMILES): Cc1ncoc1-c1nc(C2CC2)ncc1-c1cc(C(F)(F)F)ccc1Cl [Ex. 262]
- herbicidal activity (Echinocloa crus-galli [1]; 1000 g/ha): very good (a very good herbicidal activity is given at values of at least 85)
- herbicidal activity (Setaria viridis; 1000 g/ha): very good (a very good herbicidal activity is given at values of at least 85)
- herbicidal activity (Apera spica-venti; 1000 g/ha): very good (a very good herbicidal activity is given at values of at least 85)
- herbicidal activity (Amaranthus retroflexus; 1000 g/ha): very good (a very good herbicidal activity is given at values of at least 85)
- herbicidal activity (Echinocloa crus-galli [2]; 1000 g/ha): very good (a very good herbicidal activity is given at values of at least 85)

Structure (SMILES): Cc1occc1-c1nc(C2CC2)ncc1-c1ccccc1Cl [Ex. 58]
- herbicidal activity (Setaria viridis; 1000 g/ha): very good (a very good herbicidal activity is given at values of at least 85)
- herbicidal activity (Avena fatua; 1000 g/ha): good (A good herbicidal activity is given at values of at least 70)

Structure (SMILES): Cc1coc(C)c1-c1nc(C2CC2)ncc1-c1ccccc1Br [Ex. 252]
- herbicidal activity (Abutilon theophrasti; 1000 g/ha): very good (a very good herbicidal activity is given at values of at least 85)

Structure (SMILES): Cc1ccccc1-c1cnc(C2CC2)nc1C [Ex. 19]
- herbicidal activity (Abutilon theophrasti; 2000 g/ha): very good (a very good herbicidal activity is given at values of at least 85)
- herbicidal activity (Amaranthus retroflexus; 2000 g/ha): very good (a very good herbicidal activity is given at values of at least 85)

Structure (SMILES): CC1(C)OCC(=Cc2nc(C3CC3)ncc2-c2ccccc2Cl)CO1 [Ex. 296]
- herbicidal activity (Abutilon theophrasti; 1000 g/ha): very good (a very good herbicidal activity is given at values of at least 85)

Structure (SMILES): Cc1ncoc1-c1nc(C2CC2)ncc1-c1cc(Br)ccc1Br [Ex. 273]
- herbicidal activity (Setaria viridis; 1000 g/ha): very good (a very good herbicidal activity is given at values of at least 85)
- herbicidal activity (Apera spica-venti; 1000 g/ha): very good (a very good herbicidal activity is given at values of at least 85)
- herbicidal activity (Amaranthus retroflexus; 1000 g/ha): very good (a very good herbicidal activity is given at values of at least 85)
- herbicidal activity (Echinocloa crus-galli [2]; 1000 g/ha): very good (a very good herbicidal activity is given at values of at least 85)
- herbicidal activity (Alopecurus myosuroides; 1000 g/ha): very good (a very good herbicidal activity is given at values of at least 85)

Structure (SMILES): COc1ncc(-c2ccccc2Cl)c(/C=C/c2ccco2)n1 [Ex. 228]
- herbicidal activity (Echinocloa crus-galli [1]; 1000 g/ha): good (A good herbicidal activity is given at values of at least 70)
- herbicidal activity (Abutilon theophrasti; 1000 g/ha): good (A good herbicidal activity is given at values of at least 70)
- herbicidal activity (Apera spica-venti; 1000 g/ha): very good (a very good herbicidal activity is given at values of at least 85)

Structure (SMILES): CCc1ocnc1-c1nc(C2CC2)ncc1-c1ccccc1Cl [Ex. 282]
- herbicidal activity (Setaria viridis; 2000 g/ha): very good (a very good herbicidal activity is given at values of at least 85)
- herbicidal activity (Apera spica-venti; 2000 g/ha): very good (a very good herbicidal activity is given at values of at least 85)
- herbicidal activity (Echinocloa crus-galli [2]; 2000 g/ha): very good (a very good herbicidal activity is given at values of at least 85)
- herbicidal activity (Avena fatua; 2000 g/ha): very good (a very good herbicidal activity is given at values of at least 85)
- herbicidal activity (Alopecurus myosuroides; 2000 g/ha): very good (a very good herbicidal activity is given at values of at least 85)

Structure (SMILES): Cc1nc(C(C)(Br)Br)ncc1-c1ccccc1Cl [Ex. 50]
- herbicidal activity (Setaria viridis; 500 g/ha): very good (a very good herbicidal activity is given at values of at least 85)
- herbicidal activity (Amaranthus retroflexus; 500 g/ha): very good (a very good herbicidal activity is given at values of at least 85)

Structure (SMILES): COC(=O)C(C)c1nc(C2CC2)ncc1-c1ccccc1Br (stereo not drawn) [Ex. 85]
- herbicidal activity (Abutilon theophrasti; 2000 g/ha): very good (a very good herbicidal activity is given at values of at least 85)
- herbicidal activity (Amaranthus retroflexus; 2000 g/ha): good (A good herbicidal activity is given at values of at least 70)

Structure (SMILES): CCc1nc(C)c(-c2nc(C3CC3)ncc2-c2ccccc2Cl)o1 [Ex. 272]
- herbicidal activity (Setaria viridis; 2000 g/ha): very good (a very good herbicidal activity is given at values of at least 85)
- herbicidal activity (Apera spica-venti; 2000 g/ha): very good (a very good herbicidal activity is given at values of at least 85)
- herbicidal activity (Echinocloa crus-galli [2]; 2000 g/ha): very good (a very good herbicidal activity is given at values of at least 85)
- herbicidal activity (Avena fatua; 2000 g/ha): very good (a very good herbicidal activity is given at values of at least 85)
- herbicidal activity (Alopecurus myosuroides; 2000 g/ha): very good (a very good herbicidal activity is given at values of at least 85)

Structure (SMILES): Clc1ccccc1-c1cnc(C2CC2)nc1C1CCCS1 (stereo not drawn) [Ex. 55]
- herbicidal activity (Setaria viridis; 1000 g/ha): very good (a very good herbicidal activity is given at values of at least 85)
- herbicidal activity (Amaranthus retroflexus; 1000 g/ha): very good (a very good herbicidal activity is given at values of at least 85)

Structure (SMILES): Cc1nc(-c2nc(C3CC3)ncc2-c2ccccc2Cl)c(C)o1 [Ex. 277]
- herbicidal activity (Echinocloa crus-galli [1]; 1000 g/ha): very good (a very good herbicidal activity is given at values of at least 85)
- herbicidal activity (Setaria viridis; 1000 g/ha): very good (a very good herbicidal activity is given at values of at least 85)
- herbicidal activity (Apera spica-venti; 1000 g/ha): very good (a very good herbicidal activity is given at values of at least 85)
- herbicidal activity (Echinocloa crus-galli [2]; 1000 g/ha): very good (a very good herbicidal activity is given at values of at least 85)
- herbicidal activity (Alopecurus myosuroides; 1000 g/ha): very good (a very good herbicidal activity is given at values of at least 85)

Structure (SMILES): Clc1ccccc1-c1cnc(C2CC2)nc1-c1cccnc1 [Ex. 123]
- herbicidal activity (Setaria viridis; 2000 g/ha): good (A good herbicidal activity is given at values of at least 70)
- herbicidal activity (Amaranthus retroflexus; 2000 g/ha): very good (a very good herbicidal activity is given at values of at least 85)

Structure (SMILES): Cc1nc(C)c(-c2nc(C3CC3)ncc2-c2ccc(F)cc2Cl)o1 [Ex. 276]
- herbicidal activity (Abutilon theophrasti; 1000 g/ha): very good (a very good herbicidal activity is given at values of at least 85)
- herbicidal activity (Apera spica-venti; 1000 g/ha): very good (a very good herbicidal activity is given at values of at least 85)
- herbicidal activity (Amaranthus retroflexus; 1000 g/ha): very good (a very good herbicidal activity is given at values of at least 85)
- herbicidal activity (Alopecurus myosuroides; 1000 g/ha): very good (a very good herbicidal activity is given at values of at least 85)

Structure (SMILES): CC(C)CC#Cc1nc(C2CC2)ncc1-c1ccccc1Cl [Ex. 28]
- herbicidal activity (Abutilon theophrasti; 1163 g/ha): good (A good herbicidal activity is given at values of at least 70)
- herbicidal activity (Amaranthus retroflexus; 1163 g/ha): very good (a very good herbicidal activity is given at values of at least 85)

Structure (SMILES): Cn1c(-c2nc(C3CC3)ncc2-c2ccccc2Cl)coc1=O [Ex. 289]
- herbicidal activity (Setaria viridis; 2000 g/ha): very good (a very good herbicidal activity is given at values of at least 85)
- herbicidal activity (Apera spica-venti; 2000 g/ha): very good (a very good herbicidal activity is given at values of at least 85)
- herbicidal activity (Amaranthus retroflexus; 2000 g/ha): very good (a very good herbicidal activity is given at values of at least 85)
- herbicidal activity (Echinocloa crus-galli [2]; 2000 g/ha): very good (a very good herbicidal activity is given at values of at least 85)
- herbicidal activity (Alopecurus myosuroides; 2000 g/ha): very good (a very good herbicidal activity is given at values of at least 85)

Structure (SMILES): Cc1oc(Br)cc1-c1nc(C2CC2)ncc1-c1ccccc1Br [Ex. 253]
- herbicidal activity (Abutilon theophrasti; 1000 g/ha): good (A good herbicidal activity is given at values of at least 70)
- herbicidal activity (Amaranthus retroflexus; 1000 g/ha): very good (a very good herbicidal activity is given at values of at least 85)
- herbicidal activity (Alopecurus myosuroides; 1000 g/ha): very good (a very good herbicidal activity is given at values of at least 85)

Structure (SMILES): CC(C)(C)c1ncc(-c2nc(C3CC3)ncc2-c2ccccc2Cl)o1 [Ex. 294]
- herbicidal activity (Echinocloa crus-galli [1]; 2000 g/ha): very good (a very good herbicidal activity is given at values of at least 85)
- herbicidal activity (Abutilon theophrasti; 2000 g/ha): very good (a very good herbicidal activity is given at values of at least 85)
- herbicidal activity (Apera spica-venti; 2000 g/ha): good (A good herbicidal activity is given at values of at least 70)
- herbicidal activity (Alopecurus myosuroides; 2000 g/ha): very good (a very good herbicidal activity is given at values of at least 85)
